In patent US12319672B2, “Alpha-D-galactopyranoside derivatives” (Idorsia Pharmaceuticals Ltd, priority 2019, dated 2025):

Tests used:
[1] = biological target: human Gal-3 (hGal-3) (Homo sapiens (Human), UniProt P17931); experiment: Competitive binding assay: binding of biotinylated hGal-3 to microplate-adsorbed asialofetuin (ASF); details: Activity on hGal-3; mean values of several measurements
Experimental: (§1) Evaluation of Compound Inhibitory Activity (IC50)
(§2) The inhibitory activity of compounds is determined in competitive binding assays. This spectrophotometric assay measures the binding of biotinylated human Gal-3 (hGal-3) or human Gal-1 (hGal-1), respectively, to a microplate-adsorbed glycoprotein, asialofetuin (ASF) (Proc Natl Acad Sci USA. 2013 Mar. 26; 110(13):5052-7.). Alternatively, and preferably, a human Gal-1 version in which all six cysteines are substituted by serines may be used.
(§3) Briefly, compounds are serially diluted in DMSO (working dilutions). ASF-coated 384 well plates are supplemented with 22.8 μL/well of biotinylated hGal-3 or hGal-1 in assay buffer (i.e. 300-1000 ng/mL biotinylated hGal-3 or hGal-1) to which 1.2 μL of compound working dilutions are added and mixed.
(§4) Plates are incubated for 3 hours at 4° C., then washed with cold assay buffer (3×50 uL), incubated for 1 hour with 25 μL/well of a streptavidin-peroxidase solution (diluted in assay buffer to 80 ng/mL) at 4° C., followed by further washing steps with assay buffer (3×50 uL). Finally, 25 μL/well of ABTS substrate is added.
(§5) The calculated IC50 values may fluctuate depending on the daily assay performance. Fluctuations of this kind are known to those skilled in the art. IC50 values from several measurements are given as mean values.

[2] = biological target: human Gal-1 (hGal-1); experiment: Competitive binding assay: binding of biotinylated hGal-1 to microplate-adsorbed asialofetuin (ASF); details: Activities on hGal-1; mean values of several measurements
human Gal-1 (hGal-1), sequence (P09382 2-135 limits assumed): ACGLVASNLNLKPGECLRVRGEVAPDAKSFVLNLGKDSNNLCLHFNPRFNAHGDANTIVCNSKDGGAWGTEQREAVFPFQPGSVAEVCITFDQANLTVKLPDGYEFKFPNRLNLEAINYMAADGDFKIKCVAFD
Experimental: as §1, §2, §3, §4, §5

human Gal-3 (hGal-3), sequence (P17931 whole entry): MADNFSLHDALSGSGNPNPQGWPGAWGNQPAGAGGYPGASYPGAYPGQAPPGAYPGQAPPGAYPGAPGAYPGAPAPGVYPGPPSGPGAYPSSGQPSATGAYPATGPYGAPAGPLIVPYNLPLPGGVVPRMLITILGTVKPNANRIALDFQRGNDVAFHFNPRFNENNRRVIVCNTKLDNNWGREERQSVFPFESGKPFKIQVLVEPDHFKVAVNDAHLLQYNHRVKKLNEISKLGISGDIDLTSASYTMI

Row | Molecule | IC50 [1] | IC50 [2]
1 | CCOC(=O)N1CCC(c2cc(C[C@H]3O[C@H](CO)[C@H](O)[C@H](n4cc(-c5cc(F)c(F)c(F)c5)nn4)[C@H]3O)no2)CC1 [Example 3.26, ethyl 4-(3-(((2R,3R,4R,5R,6R)-3,5-dihydroxy-6-(hydroxymethyl)-4-(4-(3,4,5-trifluorophenyl)-1H-1,2,3-triazol-1-yl)tetrahydro-2H-pyran-2-yl)methyl)isoxazol-5-yl)piperidine-1-carboxylate] | 68 nM | 930 nM
2 | OC[C@H]1O[C@H](Cc2cc(C3CCCCC3)on2)[C@H](O)[C@@H](n2cc(-c3cc(F)c(F)c(F)c3)nn2)[C@H]1O [Ex 1.56] | 340 nM | 15200 nM
3 | CO[C@@H]1[C@@H](n2cc(-c3ccc(Cl)c(F)c3F)nn2)[C@@H](O)[C@@H](CO)O[C@@H]1Cc1cn(C(C)(C)C)nn1 [Example 4.53, (2R,3R,4S,5R,6R)-6-((1-(tert-butyl)-1H-1,2,3-triazol-4-yl)methyl)-4-(4-(4-chloro-2,3-difluorophenyl)-1H-1,2,3-triazol-1-yl)-2-(hydroxymethyl)-5-methoxytetrahydro-2H-pyran-3-ol] | 34 nM | 750 nM
4 | CO[C@@H]1[C@@H](n2cc(-c3cc(F)c(F)c(F)c3)nn2)[C@@H](O)[C@@H](CO)O[C@@H]1Cc1cc(C2CCNC(=O)CC2)no1 (stereo partly drawn) [Ex 1.337] | 55 nM | 420 nM
5 | OC[C@H]1O[C@H](CC2CC(c3cncnc3)=NO2)[C@H](O)[C@@H](n2cc(-c3cc(F)c(F)c(F)c3)nn2)[C@H]1O (stereo partly drawn) [Ex 1.14] | 680 nM | 2270 nM
6 | CO[C@@H]1[C@@H](n2cc(-c3ccc(Cl)c(F)c3F)nn2)[C@@H](O)[C@@H](CO)O[C@@H]1Cc1cc(C2(O)CCCC2)on1 [Ex 1.244] | 110 nM | 3290 nM
7 | O=c1[nH]c2ccc(C3=NO[C@@H](C[C@H]4O[C@H](CO)[C@H](O)[C@H](n5cc(-c6cc(F)c(F)c(F)c6)nn5)[C@H]4O)C3)cc2o1 [Ex 1.32] | 53 nM | 1150 nM
8 | (2R,3R,4S,5R,6R)-4-(4-(4-chloro-2,3-difluorophenyl)-1H-1,2,3-triazol-1-yl)-6-((3-(1-hydroxycyclobutyl)isoxazol-5-yl)methyl)-2-(hydroxymethyl)-5-methoxytetrahydro-2H-pyran-3-ol [Example 2.58] | 60 nM | 1460 nM
9 | CC(C)(C)OC(=O)N1CCC(C2=NOC(C[C@H]3O[C@H](CO)[C@H](O)[C@H](n4cc(-c5cccc(C(F)(F)F)c5)nn4)[C@H]3O)C2)CC1 (stereo partly drawn) [Ex 1.301] | 2700 nM | 2890 nM
10 | CO[C@@H]1[C@@H](n2cc(-c3cc(F)c(F)c(F)c3)nn2)[C@@H](O)[C@@H](CO)O[C@@H]1C[C@@H]1CN(C2CCN(C(=O)C(C)C)CC2)C(=O)O1 [Example 5.13, (R)-5-(((2R,3R,4S,5R,6R)-5-hydroxy-6-(hydroxymethyl)-3-methoxy-4-(4-(3,4,5-trifluorophenyl)-1H-1,2,3-triazol-1-yl)tetrahydro-2H-pyran-2-yl)methyl)-3-(1-isobutyrylpiperidin-4-yl)oxazolidin-2-one] | 590 nM | 4730 nM
11 | CC(C)(C)OC(=O)N1CCC(C2=NOC(C[C@H]3O[C@H](CO)[C@H](O)[C@H](n4cc(-c5cc(F)c(Cl)cc5F)nn4)[C@H]3O)C2)CC1 (stereo partly drawn) [Ex 1.95] | 190 nM | 1210 nM
12 | CO[C@@H]1[C@@H](n2cc(-c3ccc(F)c(F)c3F)nn2)[C@@H](O)[C@@H](CO)O[C@@H]1Cc1cc(C2(C#N)CCCC2)no1 [Ex 1.291] | 140 nM | 940 nM
13 | CO[C@@H]1[C@@H](n2cc(-c3ccc(C)c(F)c3F)nn2)[C@@H](O)[C@@H](CO)O[C@@H]1Cc1cc([C@@H]2CC[C@H]2O)on1 [Ex 1.343] | 93 nM | 9190 nM
14 | Cn1c(=O)[nH]c2cc(C3=NOC(C[C@H]4O[C@H](CO)[C@H](O)[C@H](n5cc(-c6cc(F)c(F)c(F)c6)nn5)[C@H]4O)C3)ccc21 (stereo partly drawn) [Ex 1.28] | 470 nM | 18900 nM
15 | CO[C@@H]1[C@@H](n2cc(-c3ccc(C)c(F)c3F)nn2)[C@@H](O)[C@@H](CO)O[C@@H]1CC1CC(C2CCN(C(=O)OC(C)(C)C)CC2)=NO1 (stereo partly drawn) [Ex 1.137] | 48 nM | 1880 nM
16 | CO[C@@H]1[C@@H](n2cc(-c3ccc(C)c(F)c3F)nn2)[C@@H](O)[C@@H](CO)O[C@@H]1Cc1cc(C2(CC#N)CC2)no1 [Ex 1.332] | 43 nM | 980 nM
17 | Cc1ccc(-c2cn([C@H]3[C@@H](O)[C@@H](CO)O[C@H](Cc4cc(C(C)(C)C)no4)[C@@H]3OCc3nccn3C)nn2)c(F)c1F [Example 2.52, (2R,3R,4S,5R,6R)-6-((3-(tert-butyl)isoxazol-5-yl)methyl)-4-(4-(2,3-difluoro-4-methylphenyl)-1H-1,2,3-triazol-1-yl)-2-(hydroxymethyl)-5-((1-methyl-1H-imidazol-2-yl)methoxy)tetrahydro-2H-pyran-3-ol] | 78 nM | 5130 nM
18 | CO[C@@H]1[C@@H](n2cc(-c3cc(F)c(F)c(F)c3)nn2)[C@@H](O)[C@@H](CO)O[C@@H]1Cc1cc(C2CCN(C(=O)N3CCCCC3)CC2)on1 [Example 3.66, (4-(3-(((2R,3R,4S,5R,6R)-5-hydroxy-6-(hydroxymethyl)-3-methoxy-4-(4-(3,4,5-trifluorophenyl)-1H-1,2,3-triazol-1-yl)tetrahydro-2H-pyran-2-yl)methyl)isoxazol-5-yl)piperidin-1-yl)(piperidin-1-yl)methanone] | 140 nM | 3590 nM
19 | CO[C@@H]1[C@@H](n2cc(-c3cc(F)c(F)c(F)c3)nn2)[C@@H](O)[C@@H](CO)O[C@@H]1Cc1cc(C2CCNCC2)on1 [Example 3.16, (2R,3R,4S,5R,6R)-2-(hydroxymethyl)-5-methoxy-6-((5-(piperidin-4-yl)isoxazol-3-yl)methyl)-4-(4-(3,4,5-trifluorophenyl)-1H-1,2,3-triazol-1-yl)tetrahydro-2H-pyran-3-ol] | 220 nM | 5190 nM
20 | CO[C@@H]1[C@@H](n2cc(-c3ccc(C)c(F)c3F)nn2)[C@@H](O)[C@@H](CO)O[C@@H]1Cc1cc(C(C)(C)CO)no1 [Ex 1.257] | 44 nM | 1780 nM
21 | COC(=O)CO[C@@H]1[C@@H](n2cc(-c3cc(F)c(F)c(F)c3)nn2)[C@@H](O)[C@@H](CO)O[C@@H]1CC1CC(C2CCN(C(=O)OC(C)(C)C)CC2)=NO1 (mixture of isomers) [Example 2.33, tert-butyl 4-((RS)-5-(((2R,3R,4S,5R,6R)-5-hydroxy-6-(hydroxymethyl)-3-(2-methoxy-2-oxoethoxy)-4-(4-(3,4,5-trifluorophenyl)-1H-1,2,3-triazol-1-yl)tetrahydro-2H-pyran-2-yl)methyl)-4,5-dihydroisoxazol-3-yl)piperidine-1-carboxylate] | 310 nM | 2450 nM

Further molecules by falling IC50 [1], results first:

Row | IC50 [1] | IC50 [2] | Molecule
22 | 1220 nM | 6190 nM | CO[C@@H]1[C@@H](n2cc(-c3cc(F)c(F)c(F)c3)nn2)[C@@H](O)[C@@H](CO)O[C@@H]1Cc1cc(C)no1 [Ex 1.306]
23 | 870 nM | > 100000 nM | CO[C@@H]1[C@@H](n2cc(-c3cc(F)c(Cl)c(F)c3)nn2)[C@@H](O)[C@@H](CO)O[C@@H]1Cc1cc(C2CCCCC2)on1 [Ex 1.176]
24 | 660 nM | 8380 nM | CO[C@@H]1[C@@H](n2cc(-c3cc(F)c(F)c(F)c3)nn2)[C@@H](O)[C@@H](CO)O[C@@H]1Cc1cc(C2CCN(C(C)=O)C2)on1 (mixture of isomers) [Example 2.09]
25 | 440 nM | 13200 nM | CO[C@@H]1[C@@H](n2cc(-c3ccc(C)c(F)c3)nn2)[C@@H](O)[C@@H](CO)O[C@@H]1Cc1cc(C2CCCCC2)on1 [Ex 1.171]
26 | 240 nM | 4270 nM | CO[C@@H]1[C@@H](n2cc(-c3cc(F)c(F)c(F)c3)nn2)[C@@H](O)[C@@H](CO)O[C@@H]1CC1CC(c2ccc3[nH]c(=O)oc3c2)=NO1 (stereo partly drawn) [Ex 1.20]
27 | 150 nM | 11000 nM | CO[C@@H]1[C@@H](n2cc(-c3cc(F)c(C)c(F)c3)nn2)[C@@H](O)[C@@H](CO)O[C@@H]1Cc1cc(C2CCOCC2)on1 [Ex 1.179]
28 | 150 nM | 3650 nM | CO[C@@H]1[C@@H](n2cc(-c3ccc(Br)c(F)c3F)nn2)[C@@H](O)[C@@H](CO)O[C@@H]1Cc1cc(C(C)(C)C)on1 [Ex 1.191]
29 | 81 nM | 1450 nM | (2R,3R,4S,5R,6R)-4-(4-(2,3-difluoro-4-methylphenyl)-1H-1,2,3-triazol-1-yl)-6-((3-(1-hydroxycyclobutyl)isoxazol-5-yl)methyl)-2-(hydroxymethyl)-5-methoxytetrahydro-2H-pyran-3-ol [Example 2.57]
30 | 72 nM | 6440 nM | CO[C@@H]1[C@@H](n2cc(-c3ccc(C)c(F)c3F)nn2)[C@@H](O)[C@@H](CO)O[C@@H]1Cc1cc(C2(O)CCCC2)on1 [Ex 1.239]
31 | 47 nM | 1140 nM | OC[C@H]1O[C@H](Cc2cc(C3CCN(c4ncco4)CC3)on2)[C@H](O)[C@@H](n2cc(-c3cc(F)c(F)c(F)c3)nn2)[C@H]1O [Ex 1.85]
32 | 44 nM | 360 nM | CO[C@@H]1[C@@H](n2cc(-c3ccc(F)c(F)c3F)nn2)[C@@H](O)[C@@H](CO)O[C@@H]1Cc1cc(C2(C)CC2)no1 [Ex 1.251]
33 | 36 nM | 620 nM | CC(C)(C)OC(=O)N1CCC(O)(c2cc(C[C@H]3O[C@H](CO)[C@H](O)[C@H](n4cc(-c5cc(F)c(F)c(F)c5)nn4)[C@H]3O)no2)CC1 [Ex 1.61]
